The test system of one series is GFAP-lacZ transgene. In words: chemiluminescent β-galactosidase activity assay of GFAP-lacZ transgene expression in T6/GFAP-lacZ cells. It is filed as cell-based, rat. On the procedure: (§1) Cells were initially seeded in 12-well plates in DMEM supplemented with 10% FBS and weaned to a low serum DMEM (0.5% FBS) at a confluence of 70-80% for 12 hours of adaptation. Cells were then incubated with different concentrations of compounds for various amounts of time before being assayed for β-galactosidase activity and GFAP mRNA. For compound attenuation studies, cells were treated with a pro-fibrotic cytokine (TGF-β1 or PDGF-BB) either sequentially or concurrently with a compound (EGCG or genistein). In the sequential scheme, cells were first treated with a cytokine for 1-3 days, then the cytokine-containing culture medium was replaced with a fresh medium containing a particular compound only for various times. Details of the cytokine/compound treatments can be found in the individual figure legends.
(§2) A lacZ reporter assay kit for cell staining (InvivoGen, CA, USA) was used to detect the reporter gene activity in T6/GFAP-lacZ cells treated with EGCG or genistein. The staining results were documented with a digital camera (DP12) attached to an Olympus inverted bright field microscope (IX51) after development for 60 min. For quantification, the β-galactosidase activity in cell extracts was measured using a chemiluminescent assay kit (Roche, Mannheim, Germany) in a 96-well plate format, according to the manufacturer's instructions. Briefly, cells were washed twice with ice-cold 1×PBS (pH 7.4), lysed for 30 minutes at room temperature with the lysis buffer, and supernatant was collected for assays. Protein concentration was determined with a BCA protein assay kit (Pierce, Ill., USA). Specific β-galactosidase activity was obtained by normalizing against total cellular protein content.

The test system of series [1] is T6/GFAP-lacZ cells. In words: tetrazolium-based proliferation assay of T6/GFAP-lacZ cells. It is filed as cell-based, rat. As to conditions: 48 hours, low serum (0.5% FBS) medium, read-out: IC50 of proliferation inhibition. Here is the method:
FIG. 14 illustrates that EGCG and genistein suppressed proliferation of the T6/GFAP-lacZ cells. Cells were grown in full medium to 70-80% confluence in 96-well plates, followed by compound treatment of various concentrations (0-40 μM) in a low serum medium for 48 hours before assaying for proliferation. Signal was normalized against vehicle treatment (0 μM compound). Data was obtained from three independent experiments and presented as mean ±SE.
However our genistein IC50 value for the T6/GFAP-lacZ cells was three times lower than that for the T6 cells cultured in DMEM containing 10% FBS (Kang et al., (2001) supra). Our additional data also confirmed that no significant difference in IC50 value was observed between the T6 and the T6/GFAP-lacZ cells (data not shown).

A further series deals with endogenous rat GFAP mRNA. In words: real-time RT-PCR for endogenous rat GFAP mRNA in T6/GFAP-lacZ cells. It is filed as cell-based. On the procedure: as §1
Total RNA was reverse-transcribed to cDNA using Taqman's reverse transcription reagent (Applied Biosystems, CA, USA). A total of 200 ng of RNA in 7.7 μl of nuclease-free water was added to 2 μl 10× reverse transcriptase buffer, 4.4 μl 25 mM magnesium chloride, 4 μl deoxyNTP mixtures, 1 μl random hexamers, 0.4 μl RNase inhibitor and 0.5 μl reverse transcriptase (50 U/μl) in a final reaction volume of 20 μl. The reaction was performed for 10 min at 25° C. (annealing), 30 min at 48° C. (cDNA synthesis) and 5 min at 95° C. (enzyme denaturation).
Real-time quantitative PCR was carried out with an ABI 7500 Fast Real-time PCR System (Applied Biosystems, CA, USA). Two micro liters of sample cDNA were used in each PCR reaction, with β-actin gene as a reference for normalization. The primers and probes for rat β-actin and GFAP were ordered from Taqman's assay-on-demand database. The PCR reaction was performed under a default profile consisting of 95° C. for 20 seconds (enzyme denaturation) and 40 cycles of amplification (denaturation 3 seconds, annealing and extension 30 seconds). Some of the real-time RT-PCR reactions were separated on an agarose gel for visual confirmation of discrete products (data not shown).
Relative quantitation of the target mRNA was calculated using the comparative threshold cycle (CT) methods as described in the User Bulletin #2 (ABI Prism 7700 Sequence Detection System). CT indicates the fractional cycle number at which the amount of amplified target reaches a fixed threshold within the linear phase of gene amplification. ΔCT, which reflects the difference between CT target and CT β-actin, is inversely correlated to the abundance of mRNA transcripts in the samples. ACT for each sample was normalized against control experiment or calibrator and expressed as ΔΔCT. Relative quantitation is given by 2^−ΔΔCT to express the up-regulation or down-regulation of the target gene under the treatments compared to the control.
A general note: In qPCR the cycle at which signal appears reflects the starting amount.

Series [2] has as its system T6/GFAP-lacZ cells. As to the kind of experiment: X-gal stained images of T6/GFAP-lacZ cells (cell number). It is filed as cell-based, rat. As to conditions: 24 hours, low serum (0.5% FBS) DMEM. On the procedure:
FIG. 15 depicts X-gal staining of T6/GFAP-lacZ cells. Incubation with A) DMSO vehicle control; B) 25 μM EGCG; and C) 40 μM genistein in a low serum DMEM for 24 hours. Images were captured after 60 min of X-gal staining;
as §2
EGCG is a major catechin from green tea leaves associated with a wide range of beneficial activities including anti-oxidation, anti-inflammation and anti-fibrosis, whereas genistein is a major flavonoid found abundantly in soy bean with anti-tumor and pro-apoptotic activities. […]

The conditions of series [3]: Yang et al. (1998); cited from earlier work.

This is an account of results in US20070299029A1, “Hepatic stellate cell specific promoter and uses thereof” (Agency for Science, Technology and Research, priority 2005, published 2007).

Read-outs that look alike come from different tables or passages of the source.

Take `O=c1c(-c2ccc(O)cc2)coc2cc(O)cc(O)c12` [genistein]: in the series with GFAP-lacZ transgene (40 μM genistein, 24 hours (largest suppression)), the “GFAP-lacZ transgene expression (β-galactosidase activity), % of the control” value is reported as 65%. The “PDGF-BB-induced GFAP-lacZ, % of PDGF-BB-alone control” value in the series on GFAP-lacZ transgene (concurrent: 40 μM genistein and 10 ng/ml PDGF-BB, 72 hours) worked out at 48%; in the series on GFAP-lacZ transgene (sequential: 10 ng/ml PDGF-BB 48 hours, then 40 μM genistein 24 hours), 79%. Besides, the “β-galactosidase activity, % of the TGF-β1-alone control” value in the series on GFAP-lacZ transgene (concurrent: 40 μM genistein and 10 ng/ml TGF-β1, 48 hours) turned out to be 43%. Also, the “suppressing effect on TGF-β1-induced β-galactosidase activity” value in the series with GFAP-lacZ transgene (sequential: 10 ng/ml TGF-β1 24 hours, then 40 μM genistein 24 hours) is recorded as “negligible”. Moreover, the IC50 in the series on T6/GFAP-lacZ cells [1] (Rattus norvegicus) was found to be 25 µM. Further, in the series with endogenous rat GFAP mRNA (10 μM genistein, time course 0-72 hours), the “effect on endogenous GFAP mRNA” value is “less predictable, ranging from suppression at 24 hours to induction at 72 hours”. In addition, the “endogenous GFAP mRNA, % of the control” value in the series with endogenous rat GFAP mRNA (20 μM genistein, 8 hours) amounted to 23%; with endogenous rat GFAP mRNA (20 μM genistein, 72 hours) it was 43%. Besides, the “TGF-β1-induced GFAP transcription, % of the control” value in the series with endogenous rat GFAP mRNA (concurrent: 20 μM genistein and 1 ng/ml TGF-β1, 56 hours) turned out to be 14%; in the series with endogenous rat GFAP mRNA (sequential: 1 ng/ml TGF-β1 48 hours, then 20 μM genistein 8 hours), 26%. Also, the “endogenous GFAP transcription, % of the PDGF-BB-alone control” value in the series with endogenous rat GFAP mRNA (concurrent: 20 μM genistein and 10 ng/ml PDGF, 48 hours) is 6%; in the series with endogenous rat GFAP mRNA (sequential: 10 ng/ml PDGF 24 hours, then 20 μM genistein 24 hours), 8.6%. Also, the “reliable inhibitory concentration for GFAP mRNA” value in the series on endogenous rat GFAP mRNA (genistein dose experiment, 48 hours) is listed as “higher than 10 μM”. Moreover, the “proliferation inhibition (fewer cells than control)” value with T6/GFAP-lacZ cells [2] (40 μM genistein) is “significant proliferation inhibition”.

For the molecule `O=C(O[C@@H]1Cc2c(O)cc(O)cc2O[C@@H]1c1cc(O)c(O)c(O)c1)c1cc(O)c(O)c(O)c1` [EGCG, epigallocatechin gallate], the “half-life in human plasma” value in series [3] is “about 5 hours”. Also, the “PDGF-induced GFAP-lacZ elevation, % of the transgenic control” value in the series with GFAP-lacZ transgene (10 ng/ml PDGF-BB, incubation with 10 μM of EGCG for two days) is recorded as 60%. Also, the “GFAP-lacZ transgene expression (β-galactosidase activity), % of the control” value in the series with GFAP-lacZ transgene (5 μM EGCG, 2 hours) is listed as 82%; in the series on GFAP-lacZ transgene (20 μM EGCG, 2 hours) it was 55%. Further, in the series on GFAP-lacZ transgene (20 μM EGCG, 4 hours), the “GFAP-lacZ transgene expression (β-galactosidase activity), % of the control level” value was 73%. In addition, the “inhibitory effect on GFAP-lacZ transgene expression” value with GFAP-lacZ transgene (EGCG all dosages (up to 20 μM), 24 hours) was “completely abolished”. In addition, the “β-galactosidase activity, % of TGF-β1-alone control” value in the series on GFAP-lacZ transgene (concurrent: 10 ng/ml TGF-β1 with 20 μM EGCG 26 hours) came out at 66%; in the series on GFAP-lacZ transgene (sequential: 10 ng/ml TGF-β1 24 hours, then 20 μM EGCG 2 hours, not statistically significant), 87%. Further, in the series with T6/GFAP-lacZ cells [1], the IC50 was 31 µM. The “PDGF-induced GFAP elevation, % of the endogenous control” value in the series on endogenous rat GFAP mRNA (10 ng/ml PDGF, incubation with 10 μM of EGCG for two days) worked out at 8%. For the same molecule, in the series with endogenous rat GFAP mRNA (130 nM EGCG, 48 hours), the “GFAP transcription, % of the control level” value worked out at 34%. In addition, in the series on endogenous rat GFAP mRNA (10 μM EGCG, 24 hours (maximum suppression)), the “endogenous GFAP mRNA, % of the control” value came to 39%. In addition, the “GFAP transcription at increasing dosages” value with endogenous rat GFAP mRNA (EGCG dosages above 130 nM up to 20 μM, 48 hours) is reported as “no further suppression”. Also, the “endogenous GFAP mRNA, % of TGF-β1-alone control” value with endogenous rat GFAP mRNA (concurrent: 1 ng/ml TGF-β1 with 5 μM EGCG, 56 hours) is recorded as 29%; in the series with endogenous rat GFAP mRNA (sequential: 1 ng/ml TGF-β1 48 hours, then 5 μM EGCG 8 hours) it was 45%. Further, in the series with T6/GFAP-lacZ cells [2] (25 μM EGCG), the “proliferation inhibition (fewer cells than control)” value is reported as “significant proliferation inhibition”.
